Assay results published in USRE29828E, “1-Substituted-3-amidopyrrolidines” (A. H. Robins Company, Inc., priority 1976, dated 1978).
Where a name gives a salt, the structure may show the parent alone.

Test system: mice
Experiment: animal or person
Assay type: in vivo
Conditions: Mus musculus, read-out: ED50 (dose effective in 50 percent of the treated mice), analgetic effect

Compound	ED50 [mg/kg]
CN1CCC(N(C(=O)COc2ccc(Cl)cc2)c2ccccc2)C1 (stereo not drawn) [Example 31]	16.5
CCC(=O)O[C@](Cc1ccccc1)(c1ccccc1)[C@H](C)CN(C)C [Darvon®, reference compound]	11.2
CCC(=O)N(c1ccccc1OC)C1CCN(CCOc2ccccc2)C1 (stereo not drawn) [Example 4, 1-(2-phenoxethyl)-3-[N-(2-methoxyphenyl)propionamido]pyrrolidine]	6.8
CCC(=O)N(c1ccccc1)C1CCN(CCOc2ccccc2OC)C1 (stereo not drawn) [Example 18, 1-[2-(2-methoxyphenoxy)ethyl]-3-(N-phenylpropionamido)-pyrrolidine]	3.4
CN1CCC(N(C(=O)c2ccc(Cl)cc2)c2ccccc2)C1 (stereo not drawn) [Example 15, 1-methyl-3-[N-phenyl-(4-chlorobenzamido)]pyrrolidine fumarate]	5.2
CCC(=O)N(c1ccccc1)C1CCN(CCOc2ccccc2)C1 (stereo not drawn) [Example 17, 1-(2-phenoxyethyl)-3-(N-phenylpropionamido)pyrrolidine hydrochloride]	14.2
C=CCN1CCC(N(C(=O)CC)c2ccccc2)C1 (stereo not drawn) [Example 5]	8
CCOC(=O)C1(c2ccccc2)CCN(C)CC1 [Demerol®, reference compound]	6.4

Test system: depressant action of tetrabenazine in mice
Experiment: anti-depressant effect: antagonism of the depressant action of tetrabenazine in mice
Assay type: in vivo
Conditions: Mus musculus, read-out: ED50 (dose effective in 50 percent of the treated mice), anti-depressant effect
Experimental: The anti-depressant effect of some compounds of this invention was assessed by their ability to antagonize the depressant action of tetrabenazine (2-oxo-3-isobutyl-9,10-dimethoxy- 1,2,3,4,6,7 -hexahydro-11bH-benzo[a]quinolizine) in mice [Englehardt et al. J. Med. Chem. 11 (2), 325 (1968)].

Compound	ED50 [mg/kg]
CCN1CCC(N(C(=O)c2ccc(Cl)cc2)c2ccc(Cl)cc2)C1 (stereo not drawn) [Example 47]	4.9
O=C(c1ccccc1)N(c1ccccc1)C1CCNC1 (stereo not drawn) [Example 42]	2.4
CN1CCC(N(C(=O)c2cccc(Cl)c2)c2ccccc2)C1 (stereo not drawn) [Example 37]	2.8
CN1CCC(N(C(=O)c2ccc(Br)cc2)c2ccccc2)C1 (stereo not drawn) [Example 40]	15.5
CN1CCC(N(C(=O)c2ccccc2)c2ccccc2)C1 (stereo not drawn) [Example 29]	1.7
CN1CCC(N(C(=O)c2ccc(Cl)cc2)c2ccccc2)C1 (stereo not drawn) [Example 15, 1-methyl-3-[N-phenyl-(4-chlorobenzamido)]pyrrolidine fumarate]	0.6
O=C(c1ccccc1)N(c1ccccc1)C1CCN(Cc2ccccc2)C1 (stereo not drawn) [Example 41]	4.9
CCN1CCC(N(C(=O)c2ccccc2)c2cccc(C(F)(F)F)c2)C1 (stereo not drawn) [Example 44]	2
CN1CCC(N(C(=O)c2ccc(F)cc2)c2ccccc2)C1 (stereo not drawn) [Example 38]	4.8
CN1CCC(N(C(=O)c2cccc(C(F)(F)F)c2)c2ccccc2)C1 (stereo not drawn) [Example 36]	2.8
CN(C)CCCN1c2ccccc2CCc2ccccc21 [Tofranil®, reference compound]	1.3
CCN1CCC(N(C(=O)c2ccc(Cl)cc2)c2ccccc2)C1 (stereo not drawn) [Example 48]	0.6

Same assay, conditions: Mus musculus; mice; antagonism of depressant action of tetrabenazine; read-out: ED50 (dose effective in 50 percent of the treated mice), anti-depressant effect

Compound	ED50 [mg/kg]
CN(C)CCC=C1c2ccccc2CCc2ccccc21 [Elavil®, reference compound]	1.1
